The text below walks through data of ChEMBL document CHEMBL1201862, “PubChem BioAssay data set” (2004).

The structures appear in SMILES notation.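 Step 1: Grow cells in 96-well plates. Step 2: Expose to compound for 48 hours at 5 concentrations. Step 3: Interpolate endpoints linearly; if unreached, use highest concentration. At the GI50, growth is halved.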 Activity calls are given as the source filed them. Cut-off read from the data, not from the text of the source: active = GI50 up to about 1.1 µM and inactive = higher. Where only a bound is given, the exact number is not on record here.

Some test systems named below: NCI-H226; DLD-1; NCI/ADR-RES; A498; SNB-78; KM-20L2; DMS-114; DMS-273; SF-295; M19-MEL; TK-10; SR; ACHN; M14.
Common to all, as to experiment: NCI-60 cell line screen, 48 h

On to `CC1(C)N=C(N)N=C(N)N1c1ccc(OCCCOc2ccccc2)c(Cl)c1`, for which the GI50 with NCI-H226 was 0.798 µM (active); with DLD-1, 1.51 µM (inactive); with NCI/ADR-RES it was > 100 µM (inactive); with A498, 1.4 µM (inactive); with SNB-78, 0.538 µM (active); in the experiment with KM-20L2, 0.0715 µM (active). The GI50 in the experiment with DMS-114 is 0.076 µM (active); in the experiment on DMS-273, 0.0262 µM (active); in the experiment on SF-295 it was 0.538 µM (active); in the experiment on M19-MEL, 0.147 µM (active).

Consider `COc1cc2c(oc(=O)c3c4occc4cc(OC)c23)c2cccc(OCc3ccccc3)c12`, for which the GI50 in the experiment with NCI-H226 was > 100 µM (inactive); in the experiment on DLD-1, > 100 µM (inactive); with TK-10, > 100 µM (inactive); with A498 it was 34.4 µM (inactive); in the experiment on SNB-78 it was 37.8 µM (inactive); in the experiment on SR it was > 100 µM (inactive). For the same compound, the GI50 is > 100 µM (inactive) in the experiment with KM-20L2; > 100 µM (inactive) with DMS-114; > 100 µM (inactive) with ACHN; 38.9 µM (inactive) in the experiment on DMS-273; 88.9 µM (inactive) in the experiment on SF-295; 61.5 µM (inactive) with M19-MEL. In addition, in the experiment with M14, the GI50 was 80.2 µM (inactive).

As to `C=C1C(=O)OC2C1CC1OC2C(C)CCC/C(C)=C\CCC1(C)O` (stereo not given), the GI50 was 18.4 µM (inactive) in the experiment with NCI-H226; 18.7 µM (inactive) in the experiment on DLD-1; 14.4 µM (inactive) in the experiment on NCI/ADR-RES; 19.9 µM (inactive) with A498; 12.1 µM (inactive) in the experiment with SNB-78; 29.7 µM (inactive) in the experiment on KM-20L2. In addition, the GI50 was 11.6 µM (inactive) in the experiment with DMS-114, 16.2 µM (inactive) with DMS-273, 37.5 µM (inactive) in the experiment with SF-295 and 10.1 µM (inactive) in the experiment on M19-MEL.

As for `COC(=O)c1ccc(N/C=C(/C#N)c2ccsc2)cc1`, the GI50 in the experiment on NCI-H226 is 20.7 µM (inactive); in the experiment with DLD-1 it was 13 µM (inactive); in the experiment with TK-10, 16.8 µM (inactive); in the experiment on A498, 4.06 µM (inactive); in the experiment on SNB-78 it was 15 µM (inactive); with SR it was > 100 µM (inactive). Besides, the GI50 in the experiment on KM-20L2 was 12 µM (inactive); in the experiment on DMS-114, 15 µM (inactive); in the experiment with ACHN, 5.97 µM (inactive); in the experiment with DMS-273, 14.8 µM (inactive); in the experiment on SF-295 it was 7.18 µM (inactive); in the experiment on M19-MEL it was 34 µM (inactive).

On to `COc1cc(C2c3cc4c(cc3[C@@H](Nc3cnc5ccccc5c3)C3COC(=O)[C@H]23)OCO4)cc(OC)c1O` (stereo not given in full), for which the GI50 was 0.152 µM (active) with NCI-H226; 1.05 µM (active) with DLD-1; 1.51 µM (inactive) with NCI/ADR-RES; 0.22 µM (active) in the experiment on A498; 2.69 µM (inactive) in the experiment with SNB-78; 1.47 µM (inactive) in the experiment on KM-20L2. Moreover, the GI50 is 0.277 µM (active) with DMS-114, 0.047 µM (active) in the experiment with DMS-273, 0.148 µM (active) in the experiment on SF-295 and 0.422 µM (active) in the experiment with M19-MEL.

`COC1=CC(=O)C=C(OC)C1=O` [2,6-DIMETHOXYQUINONE]: the GI50 with NCI-H226 was 1.55 µM (inactive); in the experiment with DLD-1, 8.87 µM (inactive); in the experiment on NCI/ADR-RES, 5.01 µM (inactive); in the experiment on A498, 2.49 µM (inactive); in the experiment with SNB-78 it was 16.8 µM (inactive); in the experiment on KM-20L2, 30 µM (inactive). The GI50 in the experiment on DMS-114 is 5.81 µM (inactive); in the experiment on DMS-273, 36.1 µM (inactive); with SF-295, 13.3 µM (inactive); in the experiment with M19-MEL, 4.22 µM (inactive).
